Assay results taken from US10336759B2, “Salts and processes of preparing a PI3K inhibitor” (Incyte Corporation, priority 2015, dated 2019).

Tests used:
Format in all cases: biochemical
[1] = molecular target: PI3Kα (Homo sapiens (Human), UniProt P42336); test: PI3K Enzyme Assay (Example A2), PI3Kα; conditions: assay of Example A2, 1000 μM ATP
Description: (§1) PI3K isoforms α, β, δ and γ are purchased from Millipore (Bedford, Mass.).
(§2) The kinase reactions are conducted in clear-bottom 96-well plate from Thermo Fisher Scientific in a final volume of 24 μL. Inhibitors are first diluted serially in DMSO and added to the plate wells before the addition of other reaction components. The final concentration of DMSO in the assay is 0.5%. […] The reaction mixture is prepared containing 50 μM PIP2, kinase and varying concentration of inhibitors. […] Reactions are incubated for 180 minutes and terminated by the addition of 100 μL of 1 M potassium phosphate pH 8.0, 30 mM EDTA quench buffer. A 100 μL aliquot of the reaction solution are then transferred to 96-well Millipore MultiScreen IP 0.45 μm PVDF filter plate (The filter plate is prewetted with 200 μL 100% ethanol, distilled water, and 1 M potassium phosphate pH 8.0, respectively). […] After drying by aspiration and blotting, the plate is air dried in an incubator at 37° C. overnight. Packard TopCount adapter (Millipore) is then attached to the plate followed with addition of 120 μL Microscint 20 scintillation cocktail (Perkin Elmer) in each well. After the plate sealing, the radioactivity of the product is determined by scintillation counting on Topcount (Perkin-Elmer). […]

[2] = molecular target: PI3Kβ (Homo sapiens (Human), UniProt P42338); test: PI3K Enzyme Assay (Example A2), PI3Kβ; conditions: assay of Example A2, 1000 μM ATP
Description: as §1, §2

[3] = molecular target: PI3Kδ (Homo sapiens (Human), UniProt O00329); test: PI3K Enzyme Assay (Example A2), PI3Kδ; conditions: assay of Example A2, 1000 μM ATP
PI3Kδ, sequence (O00329 whole entry): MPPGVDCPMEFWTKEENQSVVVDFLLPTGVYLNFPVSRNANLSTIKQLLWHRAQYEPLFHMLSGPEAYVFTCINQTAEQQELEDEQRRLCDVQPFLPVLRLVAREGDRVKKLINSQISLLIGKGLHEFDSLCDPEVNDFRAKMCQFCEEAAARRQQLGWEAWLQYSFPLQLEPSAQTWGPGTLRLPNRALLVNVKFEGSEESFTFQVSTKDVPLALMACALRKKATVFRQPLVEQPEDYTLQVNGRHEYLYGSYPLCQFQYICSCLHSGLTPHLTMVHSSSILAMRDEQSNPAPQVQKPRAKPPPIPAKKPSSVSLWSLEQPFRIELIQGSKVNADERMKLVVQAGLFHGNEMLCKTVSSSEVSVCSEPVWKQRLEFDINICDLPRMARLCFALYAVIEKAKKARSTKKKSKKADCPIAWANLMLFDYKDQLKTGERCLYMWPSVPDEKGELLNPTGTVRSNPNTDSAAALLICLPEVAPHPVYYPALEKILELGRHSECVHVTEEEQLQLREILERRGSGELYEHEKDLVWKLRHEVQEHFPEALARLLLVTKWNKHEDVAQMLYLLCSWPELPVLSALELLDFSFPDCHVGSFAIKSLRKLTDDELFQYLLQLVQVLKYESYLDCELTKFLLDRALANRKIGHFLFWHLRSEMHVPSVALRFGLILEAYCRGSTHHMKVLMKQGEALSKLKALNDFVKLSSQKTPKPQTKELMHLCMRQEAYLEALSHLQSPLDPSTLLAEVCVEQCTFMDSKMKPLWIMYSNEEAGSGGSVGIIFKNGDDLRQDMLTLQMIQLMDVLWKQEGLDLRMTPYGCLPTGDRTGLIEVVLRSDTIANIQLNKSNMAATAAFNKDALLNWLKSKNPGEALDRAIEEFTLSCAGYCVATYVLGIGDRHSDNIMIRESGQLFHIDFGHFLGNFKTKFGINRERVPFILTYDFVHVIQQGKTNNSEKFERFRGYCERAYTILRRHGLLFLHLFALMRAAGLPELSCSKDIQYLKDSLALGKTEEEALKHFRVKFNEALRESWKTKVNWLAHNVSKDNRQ
PI3Kδ, sequence (P27986 whole entry partner): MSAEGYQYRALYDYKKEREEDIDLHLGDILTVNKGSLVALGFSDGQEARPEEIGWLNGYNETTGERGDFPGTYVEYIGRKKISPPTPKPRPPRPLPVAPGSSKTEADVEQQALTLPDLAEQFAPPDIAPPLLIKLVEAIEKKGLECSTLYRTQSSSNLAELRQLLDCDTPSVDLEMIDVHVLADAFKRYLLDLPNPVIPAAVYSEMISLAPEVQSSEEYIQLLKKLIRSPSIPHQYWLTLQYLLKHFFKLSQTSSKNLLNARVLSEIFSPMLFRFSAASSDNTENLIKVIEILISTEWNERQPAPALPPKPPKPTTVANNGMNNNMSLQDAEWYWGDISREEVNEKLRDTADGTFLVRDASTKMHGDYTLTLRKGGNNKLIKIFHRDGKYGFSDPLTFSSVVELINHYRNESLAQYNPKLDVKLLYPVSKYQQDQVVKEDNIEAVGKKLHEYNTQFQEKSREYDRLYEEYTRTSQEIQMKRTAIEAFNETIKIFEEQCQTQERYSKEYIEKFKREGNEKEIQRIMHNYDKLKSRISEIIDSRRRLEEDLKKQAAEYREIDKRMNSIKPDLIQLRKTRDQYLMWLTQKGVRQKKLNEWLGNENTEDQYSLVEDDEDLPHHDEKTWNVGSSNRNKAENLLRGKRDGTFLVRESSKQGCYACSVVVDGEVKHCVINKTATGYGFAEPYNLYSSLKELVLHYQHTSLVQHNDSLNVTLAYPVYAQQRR
Description: as §1, §2

[4] = molecular target: PI3Kγ (Homo sapiens (Human), UniProt P48736); test: PI3K Enzyme Assay (Example A2), PI3Kγ; conditions: assay of Example A2, 1000 μM ATP
PI3Kγ, sequence (P48736 whole entry): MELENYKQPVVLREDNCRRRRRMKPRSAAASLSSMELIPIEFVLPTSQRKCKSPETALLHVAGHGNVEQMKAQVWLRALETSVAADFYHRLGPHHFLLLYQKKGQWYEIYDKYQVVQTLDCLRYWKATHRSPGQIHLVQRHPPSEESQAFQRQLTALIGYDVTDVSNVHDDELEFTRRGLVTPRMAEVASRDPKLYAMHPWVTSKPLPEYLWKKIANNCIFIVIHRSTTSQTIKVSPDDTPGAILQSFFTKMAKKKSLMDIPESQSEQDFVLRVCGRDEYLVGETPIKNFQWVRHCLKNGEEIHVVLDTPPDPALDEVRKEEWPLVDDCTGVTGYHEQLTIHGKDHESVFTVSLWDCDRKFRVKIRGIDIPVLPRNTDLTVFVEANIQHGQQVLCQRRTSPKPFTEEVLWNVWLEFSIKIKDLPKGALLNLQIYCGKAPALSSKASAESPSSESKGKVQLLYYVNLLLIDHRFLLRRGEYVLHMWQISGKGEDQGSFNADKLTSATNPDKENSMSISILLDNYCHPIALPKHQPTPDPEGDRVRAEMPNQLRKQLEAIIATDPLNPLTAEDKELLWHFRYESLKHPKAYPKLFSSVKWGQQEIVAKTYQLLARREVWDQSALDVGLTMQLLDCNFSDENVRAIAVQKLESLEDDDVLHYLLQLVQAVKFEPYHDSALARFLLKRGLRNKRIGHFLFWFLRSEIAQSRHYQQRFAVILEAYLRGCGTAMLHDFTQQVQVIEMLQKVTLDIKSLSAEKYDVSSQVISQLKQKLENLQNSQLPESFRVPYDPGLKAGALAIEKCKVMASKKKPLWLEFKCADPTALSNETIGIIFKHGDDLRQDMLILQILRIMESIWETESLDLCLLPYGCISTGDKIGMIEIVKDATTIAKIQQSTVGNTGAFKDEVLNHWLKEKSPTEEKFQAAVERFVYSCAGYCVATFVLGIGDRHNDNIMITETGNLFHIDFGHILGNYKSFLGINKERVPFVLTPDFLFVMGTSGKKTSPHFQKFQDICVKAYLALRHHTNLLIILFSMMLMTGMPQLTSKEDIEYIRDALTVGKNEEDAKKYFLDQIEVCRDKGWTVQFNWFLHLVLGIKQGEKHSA
Description: as §1, §2

[5] = molecular target: PI3Kδ (p110δ/p85α) (Homo sapiens (Human), UniProt O00329); test: PI3Kδ Scintillation Proximity Assay (Example A3); conditions: assay of Example A3, 20 μM ATP, 20 μM PIP2
PI3Kδ (p110δ/p85α), sequence (O00329 whole entry): as the sequence (O00329 whole entry) above
PI3Kδ (p110δ/p85α), sequence (P27986 whole entry partner): as the sequence (P27986 whole entry partner) above
Description: The kinase reaction was conducted in polystyrene 384-well matrix white plate from Thermo Fisher Scientific in a final volume of 25 μL. Inhibitors were first diluted serially in DMSO and added to the plate wells before the addition of other reaction components. The final concentration of DMSO in the assay was 0.5%. The PI3K assays were carried out at room temperature in 20 mM MOPS, pH 6.7, 10 mM MgCl2, 5 mM DTT and CHAPS 0.03%. […] IC50 determination was performed by fitting the curve of percent control activity versus the log of the inhibitor concentration using the GraphPad Prism 3.0 software.

PI3Kα, sequence (P42336 whole entry, canonical isoform): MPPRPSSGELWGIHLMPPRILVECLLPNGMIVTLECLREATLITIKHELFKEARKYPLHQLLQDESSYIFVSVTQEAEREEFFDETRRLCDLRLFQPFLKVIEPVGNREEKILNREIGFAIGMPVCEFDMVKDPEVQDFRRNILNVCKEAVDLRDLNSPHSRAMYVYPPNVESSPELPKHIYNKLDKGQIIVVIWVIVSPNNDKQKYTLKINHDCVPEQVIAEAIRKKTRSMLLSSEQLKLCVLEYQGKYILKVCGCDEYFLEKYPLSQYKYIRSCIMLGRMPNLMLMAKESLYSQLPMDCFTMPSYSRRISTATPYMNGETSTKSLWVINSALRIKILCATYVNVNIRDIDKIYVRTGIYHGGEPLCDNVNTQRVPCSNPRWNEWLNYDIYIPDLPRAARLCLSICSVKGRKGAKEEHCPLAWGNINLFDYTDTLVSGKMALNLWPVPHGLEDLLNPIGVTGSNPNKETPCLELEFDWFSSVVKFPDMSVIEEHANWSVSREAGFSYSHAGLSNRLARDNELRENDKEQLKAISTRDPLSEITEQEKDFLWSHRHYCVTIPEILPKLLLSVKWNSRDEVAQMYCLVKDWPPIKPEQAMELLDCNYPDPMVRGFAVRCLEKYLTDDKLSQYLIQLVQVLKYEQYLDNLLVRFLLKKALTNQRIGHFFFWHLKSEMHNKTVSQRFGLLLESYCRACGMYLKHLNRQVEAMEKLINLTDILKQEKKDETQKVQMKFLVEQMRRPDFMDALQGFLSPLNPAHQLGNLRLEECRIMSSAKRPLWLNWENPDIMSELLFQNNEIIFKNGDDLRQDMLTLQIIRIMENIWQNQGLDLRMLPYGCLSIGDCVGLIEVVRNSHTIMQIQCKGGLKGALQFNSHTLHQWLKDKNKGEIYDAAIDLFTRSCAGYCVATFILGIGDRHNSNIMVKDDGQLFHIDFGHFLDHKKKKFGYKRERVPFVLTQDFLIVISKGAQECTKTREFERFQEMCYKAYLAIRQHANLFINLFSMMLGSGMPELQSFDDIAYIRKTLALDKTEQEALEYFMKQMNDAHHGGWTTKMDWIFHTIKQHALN
PI3Kα, sequence (P27986 whole entry partner, canonical isoform): as the sequence (P27986 whole entry partner) above

| SMILES | fold selectivity for PI3Kδ over PI3Kα [1] | fold selectivity for PI3Kδ over PI3Kβ [2] | selectivity for PI3Kδ [3] | fold selectivity for PI3Kδ over PI3Kγ [4] | IC50 [5] |
| --- | --- | --- | --- | --- | --- |
| CCOc1c([C@H](C)n2nc(C)c3c(N)ncnc32)cc(Cl)c(F)c1[C@@H]1CNC(=O)C1.Cl [(R)-4-(3-((S)-1-(4-amino-3-methyl-1H-pyrazolo[3,4-d]pyrimidin-1-yl)ethyl)-5-chloro-2-ethoxy-6-fluorophenyl)pyrrolidin-2-one hydrochloride] | > 100 fold | > 100 fold | selective inhibitor for PI3Kδ | > 100 fold |  |
| CCOc1c([C@H](C)n2nc(C)c3c(N)ncnc32)cc(Cl)c(F)c1[C@@H]1CNC(=O)C1 [compound of Formula I, (R)-4-(3-((S)-1-(4-amino-3-methyl-1H-pyrazolo[3,4-d]pyrimidin-1-yl)ethyl)-5-chloro-2-ethoxy-6-fluorophenyl)pyrrolidin-2-one] |  |  |  |  | ≤ 10 nM |
